Reference: patent US6107549A, “Genetically engineered plant resistance to thiazopyr and other pyridine herbicides” (Monsanto Company, priority 1999, dated 2000)

Assays:
pyridine-esterase = type: biochemical, rabbit
Experimental: (§1) Esterase activity assays. Esterase activity was measured in vitro by conversion of either [^14 C]thiazopyr or [^14 C]MON 14300 to their corresponding monoacid. Pyridine-esterase activity was assayed during protein purification and from tissue extracts of transgenic plants. The homogenizing buffer for plant tissues consisted of 100 mM Tris pH 8.0, 1 mM EDTA, 1 mM DTT, and 10% glycerol in water. Plant tissues (1 g/ml buffer) including leaves, seeds, flowers, seedlings, etc. were homogenized in conical centrifuge tubes using a spinning pestle at 4° C. Following centrifugation (12,000× g), the supernatant (250 μl) was assayed immediately for esterase activity by incubation with [^14 C]thiazopyr or [^14 C]MON 14300 (4 μg) in 0.1 M Tris pH 8.0 buffer (50 μl) at 37° C. The reaction was sampled (100 μL) at various times (0.5 to 100 hr) to generate a kinetic profile of monoacid formation. The reaction was stopped by addition of 1% trifluoroacetic acid in acetonitrile (v/v, 150 μl). Following centrifugation (12,000× g for 3 min), the supernatant was analyzed by HPLC/RAD (radioactivity detection) to resolve the monoacid from the parent herbicide and other metabolites. Control reactions in the absence of the esterase recovered un-reacted thiazopyr or MON 14300 for the duration of experiments. Esterase activity was also assayed during protein purification following a similar procedure except a single time-point (1-2 hrs) of incubation was selected within the linear range of reaction. In vitro assays also employed three commonly used calorimetric (p-nitrophenyl butyrate) or fluorescent (4-methyl umbelliferyl butyrate and 5-bromo-4-chloro-3-indolylacetate) substrates. These substrates are useful in rapidly and qualitatively detecting general esterase activity.
Tissue extracts from 3 tobacco R1 seedlings were employed for further studies. Two of the lines (#37437 and #37432) expressed high levels of esterase (~0.5%) and one line (#37436) which expressed no pyridine-esterase was used as negative control. Tissue extracts were incubated with [^14 C]MON 14300 and formation of the monoacid monitored with time. […] In comparison, less that 2% monoacid was detected in line (#37436). […] First, pyridine-esterase was capable of driving the hydrolysis reaction to completion with no apparent product inhibition, and second, there was no endogenous esterase activity in tobacco which catalyzed MON 14300 hydrolysis.

RLE1 = target: T1, RLE1 (Oryctolagus cuniculus, UniProt P12337); assay: Thiazopyr hydrolysis by RLE1 preparation from Prof. Ozols; type: biochemical, rabbit; conditions: purified RLE1 preparation from Prof. Ozols
T1 construct: tissue Professor J. Ozols; host or cells: rabbit liver
T1 sequence (P12337 19-565): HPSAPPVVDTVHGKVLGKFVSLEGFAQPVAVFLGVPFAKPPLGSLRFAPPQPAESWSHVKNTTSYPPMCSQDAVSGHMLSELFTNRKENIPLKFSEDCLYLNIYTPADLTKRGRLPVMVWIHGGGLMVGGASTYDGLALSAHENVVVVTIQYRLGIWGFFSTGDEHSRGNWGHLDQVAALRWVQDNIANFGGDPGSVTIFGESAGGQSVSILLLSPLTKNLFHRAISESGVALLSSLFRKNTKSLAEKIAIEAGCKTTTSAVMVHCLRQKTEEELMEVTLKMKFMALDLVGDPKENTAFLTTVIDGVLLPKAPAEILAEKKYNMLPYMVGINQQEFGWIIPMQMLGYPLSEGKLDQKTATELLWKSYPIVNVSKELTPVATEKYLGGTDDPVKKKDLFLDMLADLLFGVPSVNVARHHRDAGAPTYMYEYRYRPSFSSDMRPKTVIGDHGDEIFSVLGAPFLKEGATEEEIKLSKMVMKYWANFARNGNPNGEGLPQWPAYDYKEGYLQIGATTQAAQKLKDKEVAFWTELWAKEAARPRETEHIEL
Experimental: as §1, with “Esterase activity was also assayed during protein purification following a similar procedure except a single time-point (1-2 hrs) of incubation was selected within the linear range of reaction. In vitro assays also employed three commonly used calorimetric (p-nitrophenyl butyrate) or fluorescent (4-methyl umbelliferyl butyrate and 5-bromo-4-chloro-3-indolylacetate) substrates. These substrates are useful in rapidly and qualitatively detecting general esterase activity.” left out

tomato = assay: Greenhouse test, pre-plant incorporation (PPI); type: in vivo; conditions: 21 DAT
Experimental: Green house test for tomato resistance. Similar studies were also conducted in greenhouse with pre-plant incorporation (PPI) of thiazopyr into the soil. During pre-emergence application of thiazopyr, it is possible that cracks in soil may allow seedlings to escape from exposure to thiazopyr that was sprayed on the soil surface. One way to prevent such escapes is to apply thiazopyr with pre-plant incorporation (PPI). In this method of application, thiazopyr is first incorporated into the soil and seeds are sowed directly into that soil. PPI application of thiazopyr can cause the most plant injury and therefore require lower rates of thiazopyr application.
Tomato seeds were planted in 100 cm^2 pots filled with a sterilized silty loam soil (510 g). Seeds were placed on top of soil, and covered with additional soil (135 g) which was premixed with thiazopyr at equivalent use rates of 0, 34, 45, 67, and 140 g/ha. Greenhouse growing conditions were: 29° C. day to 21° C. night with supplemental lighting as needed to maintain 200-900 μE.
In order to be certain that tomato resistance to thiazopyr in the above PE experiment was not due to escapes, a further experiment in the greenhouse using conducted using PPI application. Plants were visually rated at 21 days after treatment (DAT) based on comparison of % growth to untreated plants, and the results are presented in the bar chart in FIG. 6. […] At the 45 g/ha rate, UC82B was severely injured (10% growth) and the transgenics lines minimally injured (90% growth). At the 67 g/ha rate, UC82B plants were dead and the transgenics were stunted at 40 to 50% growth. […] Both #8255 and #8230 lines expressed the pyridine-esterase at 0.05% of total protein. The term `resistance` in all of these examples can also be expressed as a recombinantly acquired tolerance to the applied levels or rates of pyridine herbicide.

tobacco seedlings = assay: Root elongation assay for thiazopyr resistance; type: in vivo
Experimental: Root elongation assay for thiazopyr resistance. Transgenic tobacco R1 seeds (line #37432) were sterilized with a 0.25% sodium hypochlorite solution and repeatedly washed with water. Just prior to solidification of agar (~45° C.), stock solutions of thiazopyr in DMSO (1% final concentration) was added; the final concentrations of thiazopyr were 0, 0.05, 0.1, and 0.5 μM. The liquid agar was vortexed and dispensed (3 ml) into glass test tubes. Seeds (~12 per test tube) were placed on the surface of solidified agar and stored in a growth chamber at 25° C. with a 12 hr day and night cycle. Root development and length were monitored visually with time. Control experiments employed untransformed tobacco seeds from the Samson variety.

SMILES	hydrolysis to monoacid metabolite (pyridine-esterase; non-expressing line #37436, FIG. 3)	monoacid detected (pyridine-esterase; tobacco, seedling tissue extract) [%]	thiazopyr hydrolytic activity (RLE1)	thiazopyr hydrolytic activity (RLE1; listed as Thiazopyr)	% growth compared to untreated plants (tomato; UC82B control, 34 g/ha PPI) [%]	% growth compared to untreated plants (tomato; UC82B control, 45 g/ha PPI) [%]	plant condition (tomato; UC82B control, 67 g/ha PPI)	% growth compared to untreated plants (tomato; transgenic #8255 and #8230, 34 g/ha PPI) [%]	% growth compared to untreated plants (tomato; transgenic #8255 and #8230, 45 g/ha PPI) [%]	inhibition at 0.1 µM (tobacco seedlings; Nicotiana tabacum, control (Samson) seedlings, 0.1 μM thiazopyr) [%]	root length (tobacco seedlings; transgenic line #37432, 0.1 μM thiazopyr)	root inhibition (tobacco seedlings; transgenic line #37432, 0.5 μM thiazopyr)
COC(=O)c1c(C(F)F)nc(C(F)(F)F)c(C(=O)n2cccn2)c1CC(C)C [MON 14300]	no hydrolysis	< 2	–	–	–	–	–	–	–	–	–	–
COC(=O)c1c(C(F)F)nc(C(F)(F)F)c(C2=NCCS2)c1CC(C)C [thiazopyr]	–	–	demonstrated thiazopyr hydrolysis	could be demonstrated with RLE1	75	10	dead	100	90	~50	normal root length	Root inhibition was observed
